What all share (type): binding
Assay [1] addresses T1, receptor BlaR-CTD (Bacillus licheniformis, UniProt P12287).
T1 construct: the receptor BlaR-CTD is the carboxy-terminal region of BlaR
The assay is described as follows: Five minutes test: strip test for β-lactam antibiotics in milk using BlaR-CTD. Conditions: in 5 minutes; positive when first band is less intense than second band. From the text:
(§1) According to a preferred embodiment of the invention an identifier is used which comprises a receptor sensitive to antibiotics having a β-lactam ring, which receptor is obtained from Bacillus licheniformis, such as the receptor BlaR or the receptor BlaR-CTD. The isolation and the peptide sequence of the protein BlaR are described in Y. Zhu et al., J. Bacteriol., 1137-1141 (1990); the receptor BlaR-CTD is the carboxy-terminal region of BlaR, whose isolation and peptide sequence are described in B. Joris et al., FEMS Microbiology Letters, 107-114 (1990).
(§2) This example illustrates the detection in milk of antibiotics having a β-lactam ring which are monitored by the health authorities. The test described in this example uses the receptor BlaR-CTD coupled with gold beads, which serve as labelling agents, and uses a support which is in the form of an assay device comprising a solid support on which membranes are fixed.
(§3) 3.79 ml of a solution of recognition agent BlaR-CTD having a concentration of 6.6 mg/ml are taken up in a sodium phosphate buffer, 20 mM pH 7. To this solution of BlaR-CTD are then added 41.71 ml of bicarbonate buffer (0.1 M sodium bicarbonate, pH 9) and 2 ml of a solution of N-hydroxysuccinimide 6-(biotinamido)caproic ester containing 2.23 mg/ml likewise of bicarbonate buffer. This solution is stirred gently on a LABINCO stirrer for tubes on a rotary axis (available from VEL, Belgium) at a rate of 2 revolutions/minute for 2 hours at ambient temperature and away from light. 2.5 ml of a solution of Tris buffer, 1 M pH 8 are incubated with the reaction mixture under the same conditions for 30 minutes. The solution thus obtained is dialysed against HNM buffer (Hepes 100 mM, pH 8, NaCl 100 mM, MgCl2 50 mM) for 24 hours. In this way a biotinylated BlaR-CTD solution is obtained which is diluted in HNM-BSA buffer (Hepes 500 mM, pH 8, NaCl 500 mM, MgCl2 250 mM, BSA 10 mg/ml) to a concentration of 250 μg of biotinylated BlaR-CTD per ml of buffer. This solution is stored at −20° C.
(§4) The biotinylated BlaR-CTD solution prepared in Example 3.1.1 is diluted 114.7 times with the HNM-BSA buffer (Hepes 500 mM, pH 8, NaCl 500 mM, MgCl2 250 mM, BSA 10 mg/ml). At room temperature, 22.5 parts by volume of this dilute biotinylated BlaR-CTD solution, 7.5 parts by volume of HNM-BSA buffer, 9.27 parts by volume of the gold particle suspension used to label the biotinylated BlaR-CTD and 6 parts by volume of reference gold particle suspension are mixed (see Example 3.1.4 below).
(§5) The first capture substance makes it possible to fix the BlaR-CTD coupled with the gold beads present in excess relative to the quantity of antibiotic present in the sample.
(§6) Assay devices containing membranes (2), (3) and (4) are used, assembled in accordance with the procedure described in Example 1.1. The membrane (3) of these devices carries on the proximal side the capture substance described in Example 32.1. and on the distal side the capture substance described in Example 3.2.2. The capture substances were deposited in accordance with the procedure described in Example 1.2.
Six samples of fresh milk are prepared, containing 0; 2; 4; 6; 8 and 10 ppb, repsectively, of cloxacillin. Each of these solutions is then analysed as follows.
An aliquot is taken of 200 μl of milk sample and 45.27 μl of solution prepared in Example 3.1.3, and is placed in a glass flask. This mixture is incubated at 47° C. for 3 minutes. An assay device is taken and is placed vertically in the glass flask such that the first end of the assay device is in contact with the mixture in such a way that the second end rests on the wall of the glass flask. The mixture is allowed to migrate over the assay device while the assembly is incubated at 47° C. for 2 minutes.
(§7) An intensity value ranging from 0 to 10 is awarded to the bands detected, the value 10 being given to the most intense band and the value 0 being given to the least intense band. On this scale, a value of 6 is awarded to the reference band. […]

In assay [2] the target is T1, receptor BlaR-CTD. The assay is described as follows: 3-minute rapid test: strip test for β-lactam antibiotics in milk using BlaR-CTD. Conditions: for Intensity 1st band: scale 0 to 10, reference band 6, 47° C., 1 min incubation + 2 min migration.
Text: as §1, §2, §3, §4, §5, §6
7 samples of fresh milk are prepared, containing 0; 1; 2; 3; 4; 5 and 6 ppb, respectively, of penicillin G. Each of these solutions is then analysed as follows.
An aliquot is taken of 200 μl of milk sample and 45.27 μl of solution prepared in Example 3.1.3, and is placed in a glass flask. This mixture is incubated at 47° C. for 1 minute. An assay device is taken and is placed vertically in the glass flask such that the first end of the assay device is in contact with the mixture and such that the second end rests on the wall of the glass flask. The mixture is allowed to migrate over the assay device while the assembly is incubated at 47° C. for 2 minutes.
as §7

Assay [3] concerns the target T1, receptor BlaR-CTD. The assay is described as follows: 9-minute test: strip test for β-lactam antibiotics in milk using BlaR-CTD. To be noted: in 9 minutes; positive when first band is less intense than second band.
Text: as §1, §2, §3, §4, §5, §6
Six samples of fresh milk are prepared, containing 0; 4; 6; 8; 10 and 12 ppb, respectively, of cephapirin. Each of these solutions is then analysed as follows.
An aliquot is taken of 200 μl of milk sample and 45.27 μl of solution prepared in Example 3.1.3, and is placed in a glass flask. This mixture is incubated at 47° C. for 7 minutes. An assay device is taken and is placed vertically in the glass flask such that the first end of the assay device is in contact with the mixture in such a way that the second end rests on the wall of the glass flask. The mixture is allowed to migrate over the assay device while the assembly is incubated at 47° C. for 2 minutes.
as §7

T1 sequence (P12287 340-601): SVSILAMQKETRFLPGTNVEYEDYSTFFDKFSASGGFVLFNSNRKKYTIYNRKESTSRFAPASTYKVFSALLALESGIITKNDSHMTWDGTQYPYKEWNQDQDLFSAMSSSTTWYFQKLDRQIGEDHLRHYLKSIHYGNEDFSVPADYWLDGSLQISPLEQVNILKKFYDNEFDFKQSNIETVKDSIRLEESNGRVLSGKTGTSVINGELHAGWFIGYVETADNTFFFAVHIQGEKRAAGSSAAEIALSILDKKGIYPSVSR

In the case of `CC1(C)S[C@@H]2[C@H](NC(=O)Cc3ccccc3)C(=O)N2[C@H]1C(=O)O` [Penicillin G, penicillin G], the “lowest concentration detected in a milk sample” value is on record as 3 ppb at receptor BlaR-CTD [1]; “less than 4 ppb” at receptor BlaR-CTD [2] (in 3 minutes, positive when first band is less intense than second band); 3 ppb on receptor BlaR-CTD [3]. In addition, the “Intensity 1st band” value at receptor BlaR-CTD [2] (1 ppb penicillin G in fresh milk) came out at 9; at receptor BlaR-CTD [2] (2 ppb penicillin G in fresh milk), 9; at receptor BlaR-CTD [2] (3 ppb penicillin G in fresh milk), 4; on receptor BlaR-CTD [2] (4 ppb penicillin G in fresh milk), 0; on receptor BlaR-CTD [2] (5 ppb penicillin G in fresh milk), 0; on receptor BlaR-CTD [2] (6 ppb penicillin G in fresh milk) it was 0.

Values taken from patent US20040096356A1, “Assay device for determining analytes in a liquid dairy product” (priority 1997, published 2004).
